Read-outs that look alike come from different tables or passages of the source.
Test system: castrated immature young rats
Experiment: Adapted model of Hershberger's test (levator ani and ventral prostate weight)
Type: in vivo, Sprague Dawley rats
Settings: Rattus norvegicus, po, 96 h
Description: The selective modulating activity of the androgen receptor was tested in a model of castrated immature young rats. This model, which is widely recognised for evaluating the anabolic effects of androgen compounds on the muscles and on the genitalia, has been described by Hershberger et al. 1953 Proc. Soc. Expt. Biol. Med. 83:175.
The method is based on the measurement of the well-known effects of androgens on the growth of the muscles and the accessory male sex organs in animals, and also in men. The consequences of castration appear in the form of a rapid involution and atrophy of the prostate and the seminal vesicles and of the anus-lifting muscle (levator ani). This effect may be completely compensated by an exogeneous administration of androgen, in particular of testosterone. The model is thus used to determine the capacity of the tested molecules to maintain the weight of the accessory sex and muscle organs in immature castrated rats, and therefore their androgenic efficacy.
Immature young Sprague Dawley rats (4 to 5 weeks old) weighing approximately 140-160 g (Charles River, Les Oncins, FRANCE) were distributed randomly in various groups and were kept in an environment at 22±2° C. with an alternating day/night cycle of 12 hours and ad libitum access to food and drink.
On day 0, that is, seven days before commencement of the first treatment, the rats were weighed individually then anaesthetised with an intraperitoneal dose of Ketamine/xylazine (85/15 mg/kg, approximately 2 ml/kg). Each animal was then placed on a sterile field and the abdomen and the scrotum were disinfected with Betadine and 70% alcohol. In the case of the orchidectomised control animals (ORX), the testicles were removed via an incision in the middle of the scrotum. A sterile suture was then made to ligature the supra-testicular portion of the tissue prior to surgical section of each testicle. The groups of animals to be treated by the tested compounds were operated on in an identical manner. In the case of the intact control animals (SHAM), the testicles were similarly extracted and reintroduced delicately to their original location. The site of surgical intervention was then sutured using sterile suture thread, and the site was disinfected again by application of Betadine. Each animal was then kept under a sterile pad until it awoke, before being returned to its cage. The animals were kept in an environment at 22±2° C. with an alternating day/night cycle of 12 hours and ad libitum access to food and drink. The animals were treated with the molecules to be tested from post-surgery day 7 and until day 10 preceding sacrifice (day 11).
The rats were split into groups and treated daily from day 7 to day 10 under the conditions defined below: • 1. SHAM control group: Vehicle (0.5% aqueous methyl cellulose) administered per os. • 2. ORX control group: Vehicle (0.5% aqueous methyl cellulose) administered per os. • 3. Treated ORX group: The tested compounds were administered individually per os in suspension in the vehicle described above, in a dose of 30 mg/kg.
After treatment for 4 successive days, the animals were decapitated using a guillotine. The levator ani and the ventral prostate were removed and weighed individually. For comparing inter-experimental data, the weight of each organ was standardised and expressed in milligrammes per 100 g of the weight of the animal (W). For each organ, the average of the standardised weights of the ORX control group was fixed by definition at 0% and the average of the standardised weights of the SHAM control group was fixed by definition at 100%. The efficacy of each product was expressed as a percentage and calculated using the following formula: (Wtreated−WORX)/(WSHAM−WORX)×100 A subsequent ANOVA test was used for statistical analysis to identify the differences between groups.

[1] = ORX rats, 30 mg/kg per os, 4 successive days, ORX = 0%, SHAM = 100%, read-out: anabolic protection efficacy with regard to levator ani
[2] = ORX rats, 30 mg/kg per os, 4 successive days, ventral prostate, ORX = 0%, SHAM = 100%, read-out: androgenic efficacy with regard to the prostate
[3] = read-out: anabolic protection efficacy with regard to levator ani
[4] = read-out: androgenic efficacy with regard to the prostate

Structure (SMILES)	inhibition in vivo at 30 mg/kg [1]	inhibition in vivo at 30 mg/kg [2]	inhibition in vivo at 30 mg/kg [3]	inhibition in vivo at 30 mg/kg [4]
CN1C(=O)N(c2ccc(Cl)c(Cl)c2)C(=O)C1c1ccc(O)cc1 (centres unmarked) [Example 1, 1-(3,4-dichlorophenyl)-4-(4-hydroxyphenyl)-3-methylimidazolidine-2,5-dione]	50 to 140%	5 to 70%		
C=CCN1C(=O)N(c2ccc(Cl)c(Cl)c2)C(=O)C1c1ccc(O)cc1 (centres unmarked) [Example 3, 1-(3,4-dichlorophenyl)-4-(4-hydroxyphenyl)-3-(2-propenyl)imidazolidine-2,5-dione]	50 to 140%	5 to 70%		
C#CCN1C(=O)N(c2ccc(C#N)c(C(F)(F)F)c2)C(=O)C1c1ccc(O)cc1 (centres unmarked) [Example 4, 4-[2,5-dioxo-4-(4-hydroxyphenyl)-3-(2-propynyl)imidazolidin-1-yl]-2-trifluoromethylbenzonitrile]			50 to 140%	5 to 70%
CN1C(=O)N(c2ccc(C#N)c(C(F)(F)F)c2)C(=O)C1(C)c1ccc(O)cc1 (centres unmarked) [Example 5, 4-[3,4-dimethyl-2,5-dioxo-4-(4-hydroxyphenyl)imidazolidin-1-yl]-2-trifluoromethylbenzonitrile]			50 to 140%	5 to 70%
C#CCN1C(=O)N(c2ccc(C#N)c(C(F)(F)F)c2)C(=O)C1(C)c1ccc(O)cc1 (centres unmarked) [Example 6, 4-[2,5-dioxo-4-(4-hydroxyphenyl)-4-methyl-3-(2-propynyl)imidazolidin-1-yl]-2-trifluoromethylbenzonitrile]			50 to 140%	5 to 70%
CN1C(=O)N(c2ccc(C#N)c(C(F)(F)F)c2)C(=O)[C@@]1(C)c1ccc(O)cc1 [Example 155, (R)-4-[3,4-dimethyl-2,5-dioxo-4-(4-hydroxyphenyl)imidazolidin-1-yl]-2-trifluoromethylbenzonitrile]			50 to 140%	5 to 70%
CC#CCN1C(=O)N(c2ccc(C#N)c(C(F)(F)F)c2)C(=O)C1(C)c1ccc(O)cc1 (centres unmarked) [Example 220, 4-[3-(2-butynyl)-4-(4-hydroxyphenyl)-4-methyl-2,5-dioxoimidazolidin-1-yl]-2-trifluoromethylbenzonitrile]			50 to 140%	5 to 70%
